The values that follow come from PMC5733478, “A Non-imaging High Throughput Approach to Chemical Library Screening at the Unmodified Adenosine-A3 Receptor in Living Cells” (Frontiers in Pharmacology, 2017).

Where a name gives a salt, the structure may show the parent alone. Read-outs that look alike come from different tables or passages of the source. Where a SMILES comes first, the peptide text is derived from it. The star is where a group is joined. Cbz = O=C(OCc1ccccc1)*

The experiment addresses T1, human A3AR (Homo sapiens, UniProt P0DMS8).
T1 construct: expressed in transfected cells
T1 sequence (P0DMS8 1-318): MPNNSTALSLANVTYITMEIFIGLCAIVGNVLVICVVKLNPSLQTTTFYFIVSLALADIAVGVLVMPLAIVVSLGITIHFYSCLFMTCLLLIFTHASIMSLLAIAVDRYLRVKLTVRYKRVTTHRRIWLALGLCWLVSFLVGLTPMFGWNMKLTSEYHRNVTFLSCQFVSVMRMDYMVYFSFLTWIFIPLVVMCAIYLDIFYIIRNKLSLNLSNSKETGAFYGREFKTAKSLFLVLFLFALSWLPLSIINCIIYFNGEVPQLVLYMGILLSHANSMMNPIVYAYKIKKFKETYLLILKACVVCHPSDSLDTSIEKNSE
The experiment in a line: LOPAC library primary screen: single concentration (10 μM) inhibition of 25 nM CA200645 binding, PHERAstar FS.

Setting [1] is: % of control wells (1% DMSO and 25 nM CA200645), compounds at 10 µM, whole live cells expressing the A3AR, mean ± SD, three experiments in duplicate.
[2] abbreviates: compounds tested at 10 µM, % of control wells (1% DMSO and 25 nM CA200645), whole live cells expressing the A3AR, mean ± SD, three experiments in duplicate.

For `CC(=O)C(C)=O` [2,3-Butanedione], the “% 25 nM CA200645 binding” value is reported as 101.3 ± 15.0%. Regarding `CCn1nc(C(=O)O)c(=O)c2cc3c(cc21)OCO3` [Cinoxacin], the “% 25 nM CA200645 binding” value was 96.9 ± 2.7%. For `CC(=O)O[C@H]1Cc2ccccc2N(C(N)=O)c2ccccc21` [BIA 2-093], the “% 25 nM CA200645 binding” value is given as 110.6 ± 5.0%.

Consider `N#CC(=C(/N)Sc1ccccc1N)/C(C#N)=C(/N)Sc1ccccc1N` [U0126], for which the “% 25 nM CA200645 binding” value stood at 97.2 ± 19.0%. As to `CN(C)CCOC(C)(c1ccccc1)c1ccccn1` (stereo not shown) [Doxylamine succinate], the “% 25 nM CA200645 binding” value stood at 107.4 ± 0.7%. Turning to `O=c1ccc2ccc(O)c(O)c2o1` [Daphnetin], the “% 25 nM CA200645 binding” value was 102.0 ± 13.1%.

Take `CCN1CCCC1CNC(=O)c1cc(S(N)(=O)=O)ccc1OC` (racemic) [(±)-Sulpiride]: the “% 25 nM CA200645 binding” value is 102.1 ± 6.1%. `N=C(N)NC(=N)Nc1ccccc1` [1-Phenylbiguanide]: the “% 25 nM CA200645 binding” value is listed as 96.2 ± 2.3%. `CC(C)NCC(O)COc1ccc(COCCOC(C)C)cc1.CC(C)NCC(O)COc1ccc(COCCOC(C)C)cc1.O=C(O)/C=C/C(=O)O` (stereo not shown) [Bisoprolol hemifumarate salt]: the “% 25 nM CA200645 binding” value was 106.9 ± 6.1%. Still for that read-out and setting: to `C1CCc2nnnn2CC1` [Pentylenetetrazole] belongs 95.4 ± 8.7%; to `NC(=O)CN1CC(O)CC1=O` (stereo not shown) [Oxiracetam], 97.9 ± 12.4%.

With `CN(C(=O)CCCOc1ccc2[nH]c(=O)ccc2c1)C1CCCCC1` [Cilostamide], the “% 25 nM CA200645 binding” value under setting [1] turned out to be 75.9 ± 3.4%. On to `C=C[C@@]1(C)CC(=O)[C@]2(O)[C@@]3(C)[C@@H](O)CCC(C)(C)[C@@H]3[C@H](O)[C@H](OC(C)=O)[C@@]2(C)O1` [Forskolin], for which the “% 25 nM CA200645 binding” value is given as 100.9 ± 7.2%. With `O=c1[nH]c(=O)n([C@H]2C[C@H](O)[C@@H](CO)O2)cc1Br` [5-Bromo-2'-deoxyuridine], the “% 25 nM CA200645 binding” value is given as 101.6 ± 8.3%. For the compound 17alpha-hydroxyprogesterone, the “% 25 nM CA200645 binding” value came out at 104.8 ± 10.6%. Regarding `CCCCNc1cc(C(=O)O)cc(S(N)(=O)=O)c1Oc1ccccc1` [Bumetanide], for the setting “compounds tested at 10 µM, % of control wells (1% DMSO and 25 nM CA200645), […], mean ± SD, three experiments in duplicate”, the “% 25 nM CA200645 binding” value came out at 94.3 ± 2.5%. Regarding `CN(C)c1nc(N(C)C)nc(N(C)C)n1` [Altretamine], the “% 25 nM CA200645 binding” value was 99.1 ± 9.2%.

For the compound `Br.CCCN(CCC)[C@@H]1CCc2ccc(O)cc2C1` [R-(+)-7-Hydroxy-DPAT hydrobromide], the “% 25 nM CA200645 binding” value stood at 110.9 ± 7.0%.

For `Cc1ncc(CNC(=O)N(CCCl)N=O)c(N)n1` [Nimustine hydrochloride], the “% 25 nM CA200645 binding” value was determined as 95.2 ± 13.6%. On to `Cc1ccc(Cl)c(Nc2ccccc2C(=O)O)c1Cl` [Meclofenamic acid sodium], for which the “% 25 nM CA200645 binding” value is recorded as 93.6 ± 9.6%. Consider `O=C(CCNNC(=O)c1ccncc1)NCc1ccccc1` [Nialamide], for which the “% 25 nM CA200645 binding” value stood at 96.8 ± 7.4%.

As to `CN1Cc2c(N)cccc2C(c2ccccc2)C1` (stereo not shown) [Nomifensine maleate], the “% 25 nM CA200645 binding” value was 98.5 ± 14.7%. Take `CCCN1CCC[C@H](c2cccc(O)c2)C1.Cl` [R(+)-3PPP hydrochloride]: the “% 25 nM CA200645 binding” value is 88.4 ± 12.1%. Same read-out and setting: in the case of `Clc1ccc(N2C[C@H]3CC[C@@H](C2)N3)nn1` [DBO-83] it was 97.7 ± 11.0%; in that of `N=C(N)NC(CCC(=O)O)C(=O)O` (stereo not drawn) [alpha-Guanidinoglutaric acid], 76.4 ± 9.5%; in that of `OCc1cc(C(O)CNCCCCCCOCCCCc2ccccc2)ccc1O` (stereo not shown) [Salmeterol xinafoate], 92.6 ± 8.3%. Consider `O=C(O)C1=CCNCC1` [Isoguvacine hydrochloride], for which the “% 25 nM CA200645 binding” value under setting [1] worked out at 87.4 ± 16.5%. As for `N[C@H](C(=O)O)[C@H](Cc1ccccc1)C(=O)O` [L-Beta-threo-benzyl-aspartate], the “% 25 nM CA200645 binding” value is recorded as 95.9 ± 9.2%. As to `CCn1cc(C(=O)O)c(=O)c2cc3c(cc21)OCO3` [Oxolinic acid], the “% 25 nM CA200645 binding” value was 101.1 ± 12.4%.

Take `Cc1c(OCC(F)(F)F)ccnc1C[S+]([O-])c1nc2ccccc2[nH]1` (stereo not shown) [Lansoprazole]: the “% 25 nM CA200645 binding” value came to 100.3 ± 13.0%. Turning to `CC(C)C[C@H](NP(=O)([O-])O[C@H]1O[C@H](C)[C@@H](O)[C@H](O)[C@@H]1O)C(=O)N[C@@H](Cc1c[nH]c2ccccc12)C(=O)[O-].[Na+].[Na+]` [Phosphoramidon disodium], the “% 25 nM CA200645 binding” value under setting [2] was 101.2 ± 7.1%. Regarding `CN(C)CCC(c1ccc(Br)cc1)c1ccccn1.O=C(O)/C=C\C(=O)O` (racemic) [(±)-Brompheniramine maleate], the “% 25 nM CA200645 binding” value was 101.5 ± 4.3%. For `NCCc1c[nH]c2ccc(O)cc12` [Serotonin hydrochloride], the “% 25 nM CA200645 binding” value was 95.8 ± 9.3%. In the case of `OC[C@H]1NC[C@@H](O)[C@@H]1O` [1,4-Dideoxy-1,4-imino-D-arabinitol], the “% 25 nM CA200645 binding” value amounted to 90.0 ± 6.2%.

With `CC(C)[C@H](NC(=O)OCc1ccccc1)C(=O)N[C@H](C=O)Cc1ccccc1` [MDL 28170] (Cbz-Val-Phe-aldehyde), the “% 25 nM CA200645 binding” value came to 96.0 ± 2.8%.

On to `O=C(O)C(O)C(O)C(=O)O.c1cnc2cc3c(cc2n1)[C@@H]1CNC[C@H]3C1` [Varenicline tartrate], for which the “% 25 nM CA200645 binding” value was found to be 90.5 ± 2.6%. For the compound `NNCCc1ccccc1` [Phenelzine sulfate], the “% 25 nM CA200645 binding” value came out at 99.4 ± 7.6%. Turning to `Cc1ccc(/C(=C\CN2CCCC2)c2ccccn2)cc1.Cl` [Triprolidine hydrochloride], the “% 25 nM CA200645 binding” value was found to be 90.2 ± 0.5%. Same read-out and setting: in the case of `CC1CCN(CC[C@H]2CCCN2S(=O)(=O)c2cccc(O)c2)CC1.Cl` [SB 269970 hydrochloride] it was 93.6 ± 22.9%; in that of `CC(C)(C)NCC(O)c1ccccc1Cl` (stereo not shown) [Tulobuterol hydrochloride], 99.9 ± 4.7%; in that of `CC/C(=C(\c1ccccc1)c1ccc(OCCN(C)C)cc1)c1ccccc1` [Tamoxifen], 83.1 ± 23.3%. `Clc1ccc2c(c1)C(N1CCNCC1)=Nc1ccccc1O2` [Amoxapine]: the “% 25 nM CA200645 binding” value came to 102.6 ± 1.7%. As for `CCc1cccc(N(C)C(N)=Nc2cccc3ccccc23)c1` [CNS-1102], the “% 25 nM CA200645 binding” value was determined as 102.3 ± 11.4%. On the same count and under the same terms, to `Fc1ccc2[nH]c(CN3CCN(c4ccccn4)CC3)cc2c1` [CP-226269] belongs 83.6 ± 17.8%; to `O=[N+]([O-])c1ccc2c(c1)S(=O)(=O)C=C2` [Stattic], 107.3 ± 19.6%. Turning to `Cl.NCCS` [Cysteamine hydrochloride], the “% 25 nM CA200645 binding” value is listed as 89.3 ± 6.0%. The same measure, in the same setting: to `C[N+](C)(C)CCCCCC[N+](C)(C)C` [Hexamethonium bromide] belongs 99.4 ± 1.1%.

On to PD-184161, for which the “% 25 nM CA200645 binding” value stood at 50.8 ± 14.3%. With `CC(=O)OC(C)C[N+](C)(C)C.[Cl-]` (stereo not drawn) [Acetyl-beta-methylcholine chloride], the “% 25 nM CA200645 binding” value is listed as 91.4 ± 19.2%. `CCNC(=O)N1CCN(CCCC(c2ccc(F)cc2)c2ccc(F)cc2)CC1` [Amperozide hydrochloride]: under setting [2], the “% 25 nM CA200645 binding” value was 92.9 ± 0.6%. Consider `COc1ccc([C@@H]2Sc3ccccc3N(CCN(C)C)C(=O)[C@@H]2OC(C)=O)cc1` [Diltiazem hydrochloride], for which the “% 25 nM CA200645 binding” value is 97.4 ± 8.9%. In the case of `C=C1C(=O)O[C@H]2[C@H]1CC/C(C)=C/CC[C@@]1(C)O[C@@H]21` [Parthenolide], under setting [1], the “% 25 nM CA200645 binding” value was determined as 98.5 ± 15.3%.

Turning to `O=C1NC(=O)C(c2ccccc2)(c2ccccc2)N1` [5,5-Diphenylhydantoin], the “% 25 nM CA200645 binding” value was 95.9 ± 12.2%. For the compound `CS(=O)(=O)c1ccc(-n2nc(C(F)(F)F)cc2-c2ccc(F)cc2)cc1` [SC-58125], under “% of control wells (1% DMSO and 25 nM CA200645), compounds at 10 µM, whole live cells expressing A3AR, mean ± SD, three experiments in duplicate”, the “% 25 nM CA200645 binding” value turned out to be 96.5 ± 13.6%. Consider `C=C/C(C)=C/[C@@]1(C)SC(=O)C(C)=C1O` [Thiolactomycin], for which the “% 25 nM CA200645 binding” value under setting [1] amounted to 98.5 ± 7.2%. For the compound `O=[N+]([O-])/C=C/c1ccc2c(c1)OCO2` [MNS], the “% 25 nM CA200645 binding” value is 50.1 ± 14.8%. `Brc1c(Br)c(Br)c2[nH]cnc2c1Br` [TBBz]: the “% 25 nM CA200645 binding” value worked out at 74.5 ± 15.0%. As to `O=C([O-])c1cc2cc(Cc3cccnc3)ccc2o1.[Na+]` [Furegrelate sodium], the “% 25 nM CA200645 binding” value amounted to 89.9 ± 4.6%. Still for that read-out and setting: in the case of `Br.CCCN(CCC)C1CCc2cccc(O)c2C1` (racemic) [(±)-8-Hydroxy-DPAT hydrobromide] it was 98.2 ± 1.8%; in that of `CC1(C)NC(=O)N(c2ccc([N+](=O)[O-])c(C(F)(F)F)c2)C1=O` [Nilutamide], 98.7 ± 10.0%. For the compound `CNCC[C@@H](Oc1ccccc1C)c1ccccc1` [Tomoxetine], the “% 25 nM CA200645 binding” value was 97.5 ± 8.3%. Turning to `Nc1nc2c(ncn2COCCO)c(=O)[nH]1` [Acyclovir], the “% 25 nM CA200645 binding” value came out at 99.9 ±13.7%. With `Cl.NO` [Hydroxylamine hydrochloride], the “% 25 nM CA200645 binding” value was found to be 99.3 ± 3.4%.

Regarding `NC(N)=Nc1ccc2[nH]c3c(c2c1)C[C@@]1(O)[C@H]2Cc4ccc(O)c5c4[C@@]1(CCN2CC1CC1)[C@H]3O5.O=C(O)C(F)(F)F.O=C(O)C(F)(F)F`, the “% 25 nM CA200645 binding” value is 93.9 ± 7.0%.
